Assay results reported in patent publication US11771709B2, “ALK protein degradation agent and anti-tumor application thereof” (ShanghaiTech University, priority 2017, dated 2023).
Where two headings read alike, the source gives them in different places.

Columns and labels:
Assay type in all cases: cell-based
[1] = system: U118MG cells (FIG-ROS1 gene fusion); assay: Growth inhibition IC50 in ROS1 mutant glioblastoma cell line U118MG (72 hours); conditions: Homo sapiens, U-118-MG, U118MG cells, 72 hours
[2] = system: SW48 cell line (EGFR G719S); assay: Growth inhibition IC50 in EGFR G719S colorectal cancer cell line SW48; conditions: Homo sapiens, CTG, n = 2, read-out: Half Inhibitory Concentration (IC50) Mean
Procedure: (§3) Cells were seeded at specific density in 96 well plates one day before treatment. […] Viable cells were measured via CCK8 reagent and IC50s were calculated via Prism Graphad. Experiments were repeated at least three times.

[3] = system: PC9Brc1 (EGFR, exon 19 del+T790M) cells; assay: Growth inhibition IC50 in EGFR mutant lung cancer PC9Brc1 cells; conditions: CTB, n ≥ 3, read-out: Half Inhibitory Concentration (IC50) Mean
Procedure: (§4) SR (NPM-ALK) and NCI-H2228 (EML4-ALK, V3) cells were purchased from ATCC. […] All Cells were cultured in RPMI1640 medium with 10% FBS and Penicillin-Streptomycin in 37° C. incubator with 5% CO2.
as §3

[4] = biological target: T1, ALK protein in SR (NPM-ALK) cells (Homo sapiens, UniProt Q9UM73); assay: Western blot of ALK protein level (degradation, DC50), ALK phosphorylation and downstream signaling in SR cells
T1 construct: NPM (nucleophosmin, NPM1, P06748) fusion partner; host or cells: SR (ALCL) cells; the other entry of the earlier key: NPM1 (P06748, Nucleophosmin)
Procedure: Cancer cells were seeded in 1 ml RPMI1640 medium in 24-well plate at the density of 3×10^5 or 1.5×10^5 cells/ml. […] Then cells were washed twice with PBS and lyzed in RIPA lysis buffer with Halt Proteinase and Phosphotase inhibitor. Equal amount of proteins were loaded to run SDS-PAGE gels after denature. The gels were blotted to PVDF membrane. After incubating with first and secondary antibodies, the images were developed using SuperSignal West Pico Chemiluminescent Substrate.
DC50 (concentration required to degrade protein by half) were calculated based on the intensity from western blot, and data were analyzed via Prism GraphPad with non-linear regression.

Ba/F3 (EML4-ALK/WT) = biological target: T2, Ba/F3 (EML4-ALK/WT) (Homo sapiens, UniProt Q9UM73); assay: Growth inhibition IC50 in Ba/F3 cells expressing EML4-ALK wild type
T2 construct: Q9HC35 (Echinoderm microtubule-associated protein-like 4)
Procedure: as §3

MOLM13 cells (FLT3-ITD) = assay: Growth inhibition IC50 in FLT3-ITD AML cell line MOLM13; conditions: Homo sapiens, MOLM-13; MOLM13 cells, n = 2, reagent CTG; read-out: Half Inhibitory Concentration (IC50) Mean
Procedure: as §3

ALK protein in SR cells = biological target: T3, ALK protein in SR cells (Homo sapiens, UniProt Q9UM73); assay: Block of ALK degradation by proteosome inhibitors MG132 and MLN4924 in SR cells
T3 construct: NPM (nucleophosmin, NPM1, P06748) fusion partner; host or cells: SR (ALCL) cells; the other entry of the earlier key: NPM1 (P06748, Nucleophosmin)
Text: To further validate the degradation effect act through proteosome mediated pathway, we also treated cells with two different proteosome inhibitors MG132 and MLN4924 to block protein degradation (FIG. 16).

[5] = system: PC9 (EGFR, exon 19 del) cells; assay: Growth inhibition IC50 in EGFR mutant lung adenocarcinoma PC9 cells; conditions: Homo sapiens, PC-9; PC9 cells, CTB, n ≥ 3; read-out: Half Inhibitory Concentration (IC50) Mean
Procedure: as §4, §3

Ba/F3 (EML4-ALK/L1196M) = biological target: T4, Ba/F3 (EML4-ALK/L1196M) (Homo sapiens, UniProt Q9UM73, L1196M, cells depend on it); assay: Growth inhibition IC50 in Ba/F3 cells expressing EML4-ALK L1196M
T4 construct: Q9HC35 (Echinoderm microtubule-associated protein-like 4)
Procedure: as §3

SR (NPM-ALK) cells = assay: Growth inhibition IC50 in ALCL SR cells (CCK8/WST, 72 hours); conditions: 72 h, SR cells, WST; Brigatinib-based PROTAD molecules (Table 3)
Procedure: as §4, §3

PC9Brc1 cells = assay: Colony formation assay in PC9Brc1 cells; conditions: PC9 Brc1 cells
Procedure: (§1) Cell were digested to become single cell suspension. Cells were seeded in the intensity of 250 cells/well in 12 well plate. Treated cells at the concentration of 100, 250, 500 nM. Fixed cells 2-3 weeks after and stained cells with crystyl violate.
(§2) ALK PROTAD compound SIAIS1210117 and its negative control epimer SIAIS219050 were used.

[6] = system: NCI-H2228 (EML4-ALK, V3) cells; assay: Growth inhibition IC50 in lung adenocarcinoma H2228 cells (WST); conditions: Homo sapiens, WST (Table 3)
Text: Experiments were repeated at least three times.
Besides above, we also tested the dosage-dependent effects on the growth inhibition in H2228 cells. […] (Table 3).

Ba/F3 (EML4-ALK/C1156Y) = biological target: T5, Ba/F3 (EML4-ALK/C1156Y) (Homo sapiens, UniProt Q9UM73, C1156Y, cells depend on it); assay: Growth inhibition IC50 in Ba/F3 cells expressing EML4-ALK C1156Y
T5 construct: Q9HC35 (Echinoderm microtubule-associated protein-like 4)
Procedure: as §3

H2228 cells (EML4-ALK) = assay: Colony formation assay in H2228 cells; conditions: about 2 weeks
Procedure: as §1
In order to see the effect of ALK PROTAD compounds on the colony formation ability of cancer cells, EML4-ALK mutant lung cancer cells H2228 were firstly seeded in 12 well plate at the density of 200 cells per well. Cells were treated with different ALK PROTAD compounds at different concentration for about 2 weeks.

PC9 cells = assay: Colony formation assay in PC9 cells
Procedure: as §1, §2

SMILES: COc1cc(N2CCC(NC(=O)CCCCCCCCCC(=O)N[C@H](C(=O)N3C[C@H](O)C[C@H]3C(=O)NCc3ccc(-c4scnc4C)cc3)C(C)(C)C)CC2)ccc1Nc1ncc(Cl)c(Nc2ccccc2P(C)(C)=O)n1 [SIAIS1210117, N1-(1-(4-((5-chloro-4-((2-(dimethylphosphoryl)phenyl)amino)pyrimidin-2-yl)amino)-3-methoxyphenyl)piperidin-4-yl)-N11-((S)-1-((2S,4R)-4-hydroxy-2-((4-(4-methylthiazol-5-yl)benzyl)carbamoyl)pyrrolidin-1-yl)-3,3-dimethyl-1-oxobutan-2-yl)undecanediamide]
- IC50 ([1]; n = 2, reagent CTG, read-out: Half Inhibitory Concentration (IC50) Mean): 920 nM
- IC50 ([1]; read-out: IC50): ~920 nM
- IC50 [2]: 1360 nM
- IC50 [3]: 460 nM
- DC50 ([4]; ALK protein degradation in SR cells): 0.5 to 10 nM
- ALK protein degradation within a time course ([4]; SR cells, 100 nM, 4 hours (SIAIS1210117), up to 24 hours (epimer)): significant ALK protein degradation
- GI50 (Ba/F3 (EML4-ALK/WT)): 123 nM
- IC50 (MOLM13 cells (FLT3-ITD)): 345 nM
- reduction of ALK protein level and its block by MG132 and MLN4924 (ALK protein in SR cells): able to be blocked
- IC50 [5]: 106 nM
- GI50 (Ba/F3 (EML4-ALK/L1196M)): 170 nM
- IC50 (SR (NPM-ALK) cells): 1.7 ± 1 nM
- colony formation (PC9Brc1 cells): able to inhibit
- IC50 [6]: 30.3 nM
- GI50 (Ba/F3 (EML4-ALK/C1156Y)): 120 nM
- colony formation (H2228 cells (EML4-ALK)): dramatically inhibited
- colony formation (PC9 cells): able to inhibit
